From US10421782B2, “Cyclic cationic peptides with antimicrobial activity” (I.C.F. S.R.L., priority 2012, dated 2019)
Values after ≈ are worked out from the molar mass of the structure shown. Values joined by “and” are separate entries in the source; they are usually repeats but may differ in a detail not shown here. Equal values may be shown once. Read-outs that look alike come from different tables or passages of the source. Where a SMILES comes first, the peptide text is derived from it. Bridges are numbered along the chain shown (N, C = ends).

Columns and labels:
[1] = system: meticillin-resistant S. aureus ATCC 43300; experiment: Broth-microdilution test and subsequent plating on agar, Gram-positive bacteria; assay type: cell-based, Staphylococcus aureus; details: 2 h contact at 37° C., CFU count after 24 h
Procedure: (§1) For each bacterial strain, 3-5 morphologically similar colonies were drawn from fresh cultures, inoculated in Brain Hearth Infusion broth liquid medium and incubated at the temperature of 37° C. under shaking at 225 r.p.m. for 3-4 h. Subsequently, the bacterial suspension was centrifuged at 1000 g for 20 min and the thus obtained pellet was resuspended in phosphate buffer 10 mM. Turbidity was measured in a spectrophotometer with absorbance at 600 nm, equivalent in the range 0.08-0.13 to a concentration of about 10^8 CFU/ml. The bacterial suspension was diluted 1:100 in phosphate buffer 10 mM, and within 30 min, 50 microliters of such bacterial suspension (10^6 CFU/ml) were inoculated in each well of the microtiter plate, to obtain a final bacterial concentration of about 5×10^5 CFU/ml.
(§2) Several synthetic peptides were tested for their ability to inhibit bacterial growth. Fifty microliters of peptide at a concentration comprised between about 0.2 mM and about 50 mM were added to 96-well U-bottom plates containing phosphate buffer and one of the following bacteria: S. aureus ATCC 25923, meticillin-resistant S. aureus ATCC 43300. After 2 hour incubation at 37° C., bacteria were transferred on a solid medium. As a control, the bacterial cultures were cultured in the absence of peptide.
(§3) The bacterial suspension was put in contact for two hours with different concentrations of the peptide at the temperature of 37° C. After incubation, 20 μl were drawn from the wells of each dilution and seeded on solid medium, Columbia agar supplemented with 5% bovine red blood cells for Gram-positive bacteria. The inoculum was evenly distributed on the agarized medium by means of a sterile disposable loop. After incubation for 24 hours at the temperature of 37° C., counting of the bacterial colonies (CFU) was performed.

S. aureus ATCC 25923 = experiment: as above; assay type: cell-based, Staphylococcus aureus; details: meticillin-sensitive, 2 h contact at 37° C., CFU count after 24 h
Procedure: as §1, §2, §3

E. coli ML-35pYC = experiment: Membrane permeabilization assay (CENTA / ONPG kinetics); assay type: cell-based, Escherichia coli; details: peptide 12.5 μg/ml, logistic 4-parameter fit, read up to 240 min; for Inflexion point CENTA: CENTA substrate (periplasmic beta-lactamase)
Procedure: The strain ML-35pYC of E. coli was used to assay the kinetics of membrane permeabilization performed by the peptides of the invention. This bacterial strain expresses resistance to ampicillin, constitutive expression of cytoplasmic beta-galactosidase, and is engineered with a plasmid for the synthesis of a periplasmic beta-lactamase. Sixty microliters (60 μl) of bacterial suspension of strain ML-35pYC of E. coli were added to 60 μl of a 15 mM solution of ONPG or 1.5 mM of CENTA in phosphate buffer. Subsequently, 120 μl of the test peptides were added to obtain a final concentration of 12.5 μg/ml. The kinetics of the reaction was evaluated by recording the value of absorbance at […] and 405 nm, for ONPG and CENTA respectively, every 10 min up to a maximum of 240 min.
By “fitting” the experimental points with the logistic 4-parameter curve, it was possible to determine the inflexion point, that is the point where the curve changes direction, relative to the 3 test peptides. No inflexion point was observed during the assay with CENTA (inflexion point higher than 500 min).

[2] = system: Pseudomonas aeruginosa ATCC 27853; assay type: cell-based; details: for LD90 P. aeruginosa ATCC 27853: 2 h contact at 37° C., CFU count after 24 h
Procedure: as §1, with “min” for “min,”
(§4) Several peptides were tested for their ability to inhibit bacterial growth in liquid culture. Fifty microliters of peptide at a concentration comprised between about 0.2 mM and 50 mM were added in 96-well U-bottom plates containing liquid growth medium and one of the following bacteria: Escherichia coli ATCC 25922, P. aeruginosa ATCC 27853, Stenotrophomonas maltophilia ATCC 13637. After 2 hour incubation at 37° C., bacteria were transferred on a solid medium. As a growth control, bacterial cultures were cultured in the absence of peptides.
as §3, with “medium,” for “medium, Columbia”, “agar McConkey.” for “agar supplemented with 5% bovine red blood cells for Gram-positive bacteria.”, “24 h” for “24 hours”

[3] = system: Escherichia coli ATCC 25922; assay type: cell-based; details: for LD90 E. coli ATCC 25922: 2 h contact at 37° C., CFU count after 24 h
Procedure: as §1, with “min” for “min,”
as §4
as §3, with “medium,” for “medium, Columbia”, “agar McConkey.” for “agar supplemented with 5% bovine red blood cells for Gram-positive bacteria.”, “24 h” for “24 hours”

[4] = system: Stenotrophomonas maltophilia ATCC 13637; experiment: Broth-microdilution test and subsequent plating on agar, Gram-negative bacteria; assay type: cell-based; details: 2 h contact at 37° C., CFU count after 24 h
Procedure: as §1, with “min” for “min,”
as §4
as §3, with “medium,” for “medium, Columbia”, “agar McConkey.” for “agar supplemented with 5% bovine red blood cells for Gram-positive bacteria.”, “24 h” for “24 hours”

[5] = system: Malassezia pachydermatis ATCC 14522; experiment: Broth-microdilution test and subsequent plating on agar, fungi (yeasts); assay type: cell-based; details: 2 h contact at 37° C., CFU count on agar Sabouraud
Procedure: (§5) The inoculum was set up by culturing Candida albicans ATCC 10231 and Malassezia pachydermatis ATCC 14522 in Czapek-Dox broth medium (DIFCO) for 48-72 h. On the assay day, the fungal culture was centrifuged at 1700×g for 15 min, the pellet was resuspended in phosphate buffer and submitted to shaking by the use of an electric vortex to disperse the fungal cell aggregates. The suspension was diluted until an optical density equal to an opacity of 0.5 on the McFarland turbidimetric scale was reached, which contains approximately 1-5×10^6 cell/ml (Branda J. A., Krantz A. Effectc of yeast on automated cell counting. Am J Clin Pathol., 2006:126, 248-254).
(§6) The peptides were tested for their ability to inhibit fungal growth. Fifty microliters of peptide at a concentration comprised between about 0.2 mM and about 50 mM were added in 96-well U-bottom plates containing phosphate buffer and one of the following fungi: Candida albicans ATCC 10231 and Malassezia pachydermatis ATCC 14522. After 2 h incubation at 37° C., fungi were transferred on the solid medium agar Sabouraud. As a control, fungal cultures were cultured in the absence of peptide.
(§7) The fungal suspension was put in contact for two hours with different concentrations of the peptide at the temperature of 37° C. After incubation, 20 μl were drawn from the wells of each dilution and seeded on the solid medium agar Sabouraud. The inoculum was evenly distributed on the agarized medium by means of a sterile disposable loop. After incubation for 24 h at the temperature of 37° C., counting of the fungal colonies (CFU) was performed.

[6] = system: Candida albicans ATCC 10231; experiment: as above; assay type: cell-based; details: 2 h contact at 37° C., CFU count on agar Sabouraud
Procedure: as §5, §6, §7

Jurkat cells = experiment: Cytotoxicity of peptides against Jurkat cells (Trypan Blue); assay type: cell-based; details: 20 μM
Procedure: Cytotoxicity of the peptides against T lymphocytes, for example Jurkat cells, was determined seeding the cells at a density of about 5*10^5 cells/ml in the presence and in the absence of peptides and incubating overnight at 37° C. in thermostat under CO2. As a negative cytotoxicity control, a medium lacking the test peptide was used, while as a positive cytotoxicity control, a medium containing 0.2% Triton X-100 was used, to completely lyse the cells. The cell viability was subsequently determined by adding 20 μl of Trypan Blue in each well, and by incubation of the cells for additional 5 min a 37° C. MCC10 value was calculated as the minimum peptide concentration necessary to induce 10% of cytotoxicity.

Row | Compound | LD90 MRSA ATCC 43300 [1] | LD90 S. aureus ATCC 25923 (S. aureus ATCC 25923) | Inflexion point CENTA (E. coli ML-35pYC) | LD90 P. aeruginosa ATCC 27853 [2] | MBC P. aeruginosa ATCC 27853 [2] | LD90 E. coli ATCC 25922 [3] | MBC E. coli ATCC 25922 [3] | LD90 S. maltophilia ATCC 13637 [4] | LD90 Malassezia pachydermatis [5] | LD90 Candida albicans [6] | also measured
1 | CC(C)C[C@@H]1NC(=O)CNC(=O)[C@H](CCCNC(=N)N)NC(=O)[C@H](C(C)C)NC(=O)[C@H](CCCCN)NC(=O)[C@H](C(C)C)NC(=O)[C@H](CC(C)C)NC(=O)[C@H](C)NC(=O)[C@@H](NC(=O)CNC(=O)[C@@H](N)CCCCN)CSSC[C@@H](C(=O)N[C@@H](CCCCN)C(=O)O)NC(=O)[C@H](C(C)C)NC(=O)[C@H](CCCCN)NC(=O)[C@H](CC(C)C)NC(=O)[C@H]([C@@H](C)O)NC1=O (relative stereo) [Peptide P72, LYS*GLY*CYS*ALA*LEU*VAL*LYS*VAL*ARG*GLY*LEU*THR*LEU*LYS*VAL*CYS*LYS] | 0.90 µM | 3.39 µM | >500 min | 0.87 µM | 2.84 µg/mL (≈ 1.57 µM) | 0.86 µM | 9.68 µg/mL (≈ 5.34 µM) | 1.88 µM | 0.68 µM | 1.03 µM | LD90 MRSA ATCC 43300 ([1]; listed as 72): 0.90 μM and 1.65 μg/ml; LD90 S. aureus ATCC 25923 (S. aureus ATCC 25923; listed as 72): 3.39 μM and 6.16 μg/ml; Inflexion point ONPG (E. coli ML-35pYC; ONPG substrate (cytoplasmic beta-galactosidase)): 7.86 min; LD90 P. aeruginosa ATCC 27853 ([2]; listed as 72): 0.87 μM and 1.61 μg/ml; LD90 E. coli ATCC 25922 ([3]; listed as 72): 1.69 μg/ml and 0.86 μM; LD90 S. maltophilia ATCC 13637 ([4]; listed as 72): 1.88 μM and 3.42 μg/ml; LD90 Malassezia pachydermatis ([5]; listed as 72): 0.68 μM and 1.24 μg/ml; LD90 Candida albicans ([6]; listed as 72): 1.03 μM and 1.87 μg/ml
2 | CC[C@H](C)[C@@H]1NC(=O)[C@H](Cc2ccccc2)NC(=O)[C@H](CCCCN)NC(=O)[C@H](C(C)C)NC(=O)CNC(=O)[C@H](CCCNC(=N)N)NC(=O)[C@H](Cc2c[nH]c3ccccc23)NC(=O)[C@H](CCC(N)=O)NC(=O)[C@H](Cc2c[nH]c3ccccc23)NC(=O)[C@H](CCCCN)NC(=O)[C@H](CCCNC(=N)N)NC(=O)[C@@H](NC(=O)[C@H](Cc2c[nH]c3ccccc23)NC(=O)[C@@H](N)CCCCN)CSSC[C@@H](C(=O)N[C@H](C(=O)O)C(C)C)NC(=O)[C@H](CCCCN)NC1=O (relative stereo) [Peptide P126, LYS*TRP*CYS*ARG*LYS*TRP*GLN*TRP*ARG*GLY*VAL*LYS*PHE*ILE*LYS*CYS*VAL] | >70 µM | 4.68 µM | >500 min | 0.20 µM | 4.53 µg/mL (≈ 2.01 µM) | 0.91 µM | 12.5 µg/mL (≈ 5.56 µM) | 6.65 µM | 0.75 µM | 1.98 µM | LD90 MRSA ATCC 43300 ([1]; listed as 126): about 71 μM and ~100 μg/ml; LD90 S. aureus ATCC 25923 (S. aureus ATCC 25923; listed as 126): 4.68 μM and 9.54 μg/ml; LD90 P. aeruginosa ATCC 27853 ([2]; listed as 126): 0.20 μM and 0.4 μg/ml; LD90 E. coli ATCC 25922 ([3]; listed as 126): 1.86 μg/ml and 0.91 μM; LD90 Candida albicans ([6]; listed as 126): about 2 μM
3 | CC[C@H](C)[C@@H]1NC(=O)CNC(=O)[C@H](CCCNC(=N)N)NC(=O)[C@H](Cc2ccc(O)cc2)NC(=O)[C@@H]2CSSC[C@H](NC1=O)C(=O)N[C@@H](Cc1ccc(O)cc1)C(=O)N[C@@H](CCCNC(=N)N)C(=O)N[C@@H](CCCNC(=N)N)C(=O)N[C@H](C(=O)N[C@@H](CCCNC(=N)N)C(N)=O)CSSC[C@H](NC(=O)[C@H](Cc1c[nH]c3ccccc13)NC(=O)[C@@H](N)CCCCN)C(=O)N[C@@H](Cc1ccccc1)C(=O)N[C@@H](CCCNC(=N)N)C(=O)N[C@@H](C(C)C)C(=O)N2 [tachyplesin-1] (H-KWCFRVCYRGICYRRCR-NH2; disulfide 3-16, 7-12) |  |  |  |  |  |  |  |  |  |  | death of the cells (Jurkat) (Jurkat cells): 10%
